Source: US20150126597A1, “GENISTEIN CANCER TREATMENT REGIMEN MAXIMIZING CANCER RADIATION THERAPY BENEFITS” (Humanetics Corporation, priority 2013, published 2015)

Columns and labels:
[1] = cited from earlier work
[2] = Genistein provided as a nano suspension in accordance with US 2012/0164190 and 2012/0121654; cited from earlier work
[3] = tested on: uterus, GI tract, esophagus, skin, tumor, lungs; assay: Example 1: post mortem tissue weights and histopathology (safety); assay type: in vivo, mouse; conditions: Example 1, 10 weeks dosing 5 d/wk
Procedure: At the time of euthanasia organs were harvested and wet tissue weights were measured. In addition to the tissues the weight of the remaining tumor was determined so that the tumor weight can be correlated with the calculated tumor volumes.
The various tissues were fixed in formalin, then processed and embedded in paraffin. Hematoxylin and eosin (H&E) staining was done on 5 micron sections from each of the tissues.
Following euthanasia organ weights were collected for the lungs, uterus, and GI tract. In addition, the tumor was resected and weighed. […]
The examined tissues included the lungs, GI tract (esophagus), uterus, tumor, and the skin near the A549 tumor xenograft. […] All tissues were analyzed microscopically following H&E staining. For these analyses 5 tumors, 5 lung samples, and 5 skin samples were analyzed from each experimental group. In addition, three uterus samples and three esophagus samples from each experimental group were analyzed. All tissue samples were prepared, sectioned, and stained with H&E. Tissues were analyzed for gross morphology and H&E sections were evaluated for inflammatory cells, capillary distension, and congestion. A veterinary pathologist scored the severity and distribution of anomalies observed. […]

O=c1c(-c2ccc(O)cc2)coc2cc(O)cc(O)c12 [Genistein, 5,7-dihydroxy-3-(4-hydroxyphenyl)-chromen-4-one]
Solubility in water [1]: virtually insoluble in water
Oral bioavailability [2]: significantly improved oral bioavailability
Uterus wet weight [3]: did not dramatically affect the wet uterine weights
